One data set has as its system Capan-1 cells. Nature of the data set: RTCA growth profile. In kind it is cell-based, human. The conditions noted are these: Capan-1, doses up to 24 μM. How it is done:
(§1) RTCA was performed using 16-well E-plates on the Dual Plate xCELLigence instrument (Roche Applied Science, Indianapolis, IN). This system measures a dimensionless parameter called cell index, which evaluates the ionic environment at an electrode/solution interface and integrates information on cell number. Depending on the cell line 5 × 10^3–1 × 10^4 cells were plated in each well of the 16-well plates in 200 μl of cell culture medium. After seeding, cells were allowed to settle for 30 min at room temperature before being inserted into the xCELLigence instrument in a humidified incubator at 37 °C with 10% CO2. For RTCA experiments assaying cells stably expressing the inducible shRNA transgene, cells were seeded onto the E-plates in medium supplemented with 200 ng ml^−1 doxycycline. […] The small-molecule inhibitors were added at indicated time points and in the indicated concentrations. […] All assays were performed in duplicates. The cell index was normalized to 1 at the time point of drug administration.

The subject of the next data set is MIA PaCa-2 cells. Nature of the data set: RTCA growth profile. In kind it is cell-based, human. The conditions noted are these: MIA PaCa-2, doses higher than 3 μM. On the procedure:
as §1

In another data set the test system is Panc-Tu-I cells. Nature of the data set: RTCA growth profile. In kind it is cell-based, human. On the procedure:
as §1

The next data set has as its target T1, B1 (h) (Homo sapiens, UniProt P46663).
T1 construct: purchased Eurofins Pharma Discovery Services (CEREP diversity panel)
Kind of data set: Cerep binding, agonist radioligand. Conditions: read-out: % Inhibition of Control Specific Binding.

In another data set the target is T2, GR (h) (Homo sapiens, UniProt P04150).
T2 construct: purchased Eurofins Pharma Discovery Services (CEREP diversity panel)
T2 sequence (P04150 whole entry): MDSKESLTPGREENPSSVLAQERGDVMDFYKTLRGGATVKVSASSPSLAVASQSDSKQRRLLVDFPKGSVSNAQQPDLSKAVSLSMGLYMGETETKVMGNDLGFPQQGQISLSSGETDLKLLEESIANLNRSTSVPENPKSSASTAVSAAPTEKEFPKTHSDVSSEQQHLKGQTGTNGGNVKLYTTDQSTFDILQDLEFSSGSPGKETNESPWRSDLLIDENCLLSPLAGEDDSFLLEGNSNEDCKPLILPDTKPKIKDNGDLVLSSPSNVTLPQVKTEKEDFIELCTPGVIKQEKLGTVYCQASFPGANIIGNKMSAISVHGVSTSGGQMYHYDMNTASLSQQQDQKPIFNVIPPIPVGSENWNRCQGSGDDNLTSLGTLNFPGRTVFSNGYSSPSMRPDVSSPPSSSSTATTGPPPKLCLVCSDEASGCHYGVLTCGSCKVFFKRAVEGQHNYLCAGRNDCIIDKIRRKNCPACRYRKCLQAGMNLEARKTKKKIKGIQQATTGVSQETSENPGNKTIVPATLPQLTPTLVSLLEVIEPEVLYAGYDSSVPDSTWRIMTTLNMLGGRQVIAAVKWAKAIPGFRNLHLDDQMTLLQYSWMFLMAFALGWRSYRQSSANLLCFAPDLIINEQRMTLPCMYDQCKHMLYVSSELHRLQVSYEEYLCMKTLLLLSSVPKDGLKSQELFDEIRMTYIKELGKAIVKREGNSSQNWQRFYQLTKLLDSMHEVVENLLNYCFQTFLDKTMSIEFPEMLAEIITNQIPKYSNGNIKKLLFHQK
Nature of the data set: Cerep binding, agonist radioligand. The conditions noted are these: read-out: % Inhibition of Control Specific Binding.

The target in a further data set is T3, PDE5 (h) (non-selective) (Homo sapiens, UniProt O76074).
T3 construct: Eurofins Pharma Discovery Services (CEREP diversity panel, outsourced assay)
Kind of data set: Cerep enzyme and cell-based assays. The class given is biochemical. Conditions: read-out: % Inhibition of Control Values.

Data set [1] deals with T4, phosphatase 1B (h) (PTP1B) (Homo sapiens, UniProt P18031).
T4 construct: Eurofins Pharma Discovery Services (CEREP diversity panel, outsourced assay)
Kind of data set: Cerep enzyme and cell-based assays. The class given is biochemical. Conditions: read-out: % Inhibition of Control Values.

A further data set has as its target T5, GABA transaminase (Rattus norvegicus, UniProt P50554).
T5 construct: Eurofins Pharma Discovery Services (CEREP diversity panel, outsourced assay)
Kind of data set: Cerep enzyme and cell-based assays. The conditions noted are these: read-out: % Inhibition of Control Values. The class given is biochemical.

For the next data set, the system named is ATPase (Na+/K+). Nature of the data set: Cerep enzyme and cell-based assays. The class given is biochemical. Conditions: 5 µM.
For data set [2] the following is noted: mouse, in vivo.
Method: (§10) Determination of pharmacokinetic properties in vivo
50% physiological saline / 40% water.
(§11) The regression equation of the calibration curve was used to calculate plasma concentrations. Pharmacokinetic parameters were calculated using the PKSolver
(§12) Animal experiments and care were conducted at Synovo GmbH (Tübingen, Germany) in accordance with the guidelines of institutional authorities and approved
A further data set in a line: in vivo. The conditions noted are these: female, NMRI, mouse, 3 mg/kg.
Data set [3] addresses choline transporter (CHT1) (h) (Homo sapiens, UniProt Q9GZV3). Kind of data set: Cerep binding, antagonist radioligand. The conditions noted are these: read-out: % Inhibition of Control Specific Binding.
A further data set has as its system Erk phosphorylation. Nature of the data set: western blot, Erk phosphorylation in PANC-1.
The target in data set [4] is T6, interaction between mCitrine-KRas and mCherry-PDEδ (Homo sapiens, UniProt O43924).
T6 construct: expressed in transfected cells; host or cells: MDCK cells, transient transfection
T6 sequence (O43924 whole entry): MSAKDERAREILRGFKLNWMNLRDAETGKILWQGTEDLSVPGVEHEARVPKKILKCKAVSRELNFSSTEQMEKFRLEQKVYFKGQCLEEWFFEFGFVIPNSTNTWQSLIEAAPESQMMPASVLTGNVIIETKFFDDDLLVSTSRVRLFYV
Nature of the data set: FLIM-FRET, mCitrine-KRas/mCherry-PDEδ in MDCK cells after Bryostatin. The conditions noted are these: 5 μM inhibitor after 1 μM Bryostatin-1, MDCK cells. In kind it is cell-based, canine.
From the text: To measure whether both inhibitors also affect the interaction of KRas with PDEδ, MDCK cells were transiently transfected with mCitrine-KRas and mCherry-PDEδ. […] To increase the fraction of KRas that interacts with PDEδ, the Protein Kinase C (PKC) activator Bryostatin, which induces serine (S181) phosphorylation on KRas[17], was applied, resulting in a reduced electrostatic interaction with the PM and increased cytosolic pool of mCitrine-KRas.
Fluorescence lifetime images were acquired using a confocal laser-scanning microscope (FV1000, Olympus) equipped with a time-correlated single-photon counting module (LSM Upgrade Kit, Picoquant). For detection of the donor (mCitrine), the sample was excited using a 470-nm diode laser (LDH 470, Picoquant) at a 36-MHz repetition frequency. […] Photons were detected using a single-photon counting avalanche photodiode (PDM Series, MPD) and timed using a single-photon counting module (PicoHarp 300, Picoquant).
Intensity thresholds were applied to segment the cells from the background fluorescence. Data were analysed via global analysis[23] to obtain images of the molar fraction (α) of interacting mCitrine-Rheb with mCherry-PDEδ. […] Dose–response relationships were determined by plotting obtained α per addition, using equation:

For another data set, the system named is PANC-1. Nature of the data set: CellTiter-Glo cell viability. The class given is cell-based, human. Conditions: PANC-1, CellTiter-Glo, n = 10. On the procedure:
(§2) Biochemical and Pharmacological Assays
(§3) Determination of cell viability using CellTiter-Glo®
(§4) Cells were seeded on day 1 at 500 cells per well to assure assay linearity and optimal signal intensity. After incubation for 24h in humidified incubator at 37°C, 5% CO2, compounds / DMSO were added at different concentrations. Cells were further incubated for 72 h at 37°C and 5% CO2. Cells treated with the compound vehicle (DMSO) […].
(§5) At day 5 the CellTiter-Glo® Reagent was prepared according to the instructions of the manufacturer (Promega): The Reagent was mixed 1:1 with cell culture medium.
(§6) Thereon, mixture and assay plates were equilibrated at room temperature for 20 min.
(§7) Equal volumes of the reagent-medium-mixture were added to the volume of culture medium present in each well. The plates were mixed at 200 rpm for 2 minutes on an orbital shaker and afterwards incubated at room temperature for 10 minutes.
(§8) Following incubation the luminescence was recorded on a Victor microplate reader (Perkin Elmer) using a 200 ms integration time. The data was analyzed with Excel using the XLFIT Plugin (dose response Fit 205) for IC50-determination.
(§9) As quality control the Z´ -factor was calculated from 16 positive and negative control values. Only assay results showing a Z´ -factor ≥ 0.5 were used for further analysis.
Background: In ATP-based viability assays light output follows the ATP content of the culture.

The test system of the next data set is Panc-Tu-I. Nature of the data set: CellTiter-Glo cell viability. The class given is cell-based, human. How it is done:
as §2, §3, §4, §5, §6, §7, §8, §9

The target in another data set is T7, acetylcholinesterase (h) (Homo sapiens, UniProt P22303).
T7 construct: Eurofins Pharma Discovery Services (CEREP diversity panel, outsourced assay)
Kind of data set: Cerep enzyme and cell-based assays. The conditions noted are these: read-out: % Inhibition of Control Values. The class given is biochemical.

The next data set has as its target T8, MAO-A (h) (Homo sapiens, UniProt P21397).
T8 construct: Eurofins Pharma Discovery Services (CEREP diversity panel, outsourced assay)
Kind of data set: Cerep enzyme and cell-based assays. In kind it is biochemical. The conditions noted are these: read-out: % Inhibition of Control Values.

Data set [5] deals with T9, MAO-B (h) recombinant enzyme (Homo sapiens, UniProt P27338).
T9 construct: Eurofins Pharma Discovery Services (CEREP diversity panel, outsourced assay)
Nature of the data set: Cerep enzyme and cell-based assays. The class given is biochemical. The conditions noted are these: read-out: % Inhibition of Control Values.

A further data set addresses T10, tyrosine hydroxylase (Rattus norvegicus, UniProt P04177).
T10 construct: Eurofins Pharma Discovery Services (CEREP diversity panel, outsourced assay)
Nature of the data set: Cerep enzyme and cell-based assays. The conditions noted are these: read-out: % Inhibition of Control Values. In kind it is biochemical.

The target of the next data set is T11, CENP-E (h) (Homo sapiens, UniProt Q02224).
T11 construct: Eurofins Pharma Discovery Services (CEREP diversity panel, outsourced assay)
T11 sequence (Q02224 whole entry): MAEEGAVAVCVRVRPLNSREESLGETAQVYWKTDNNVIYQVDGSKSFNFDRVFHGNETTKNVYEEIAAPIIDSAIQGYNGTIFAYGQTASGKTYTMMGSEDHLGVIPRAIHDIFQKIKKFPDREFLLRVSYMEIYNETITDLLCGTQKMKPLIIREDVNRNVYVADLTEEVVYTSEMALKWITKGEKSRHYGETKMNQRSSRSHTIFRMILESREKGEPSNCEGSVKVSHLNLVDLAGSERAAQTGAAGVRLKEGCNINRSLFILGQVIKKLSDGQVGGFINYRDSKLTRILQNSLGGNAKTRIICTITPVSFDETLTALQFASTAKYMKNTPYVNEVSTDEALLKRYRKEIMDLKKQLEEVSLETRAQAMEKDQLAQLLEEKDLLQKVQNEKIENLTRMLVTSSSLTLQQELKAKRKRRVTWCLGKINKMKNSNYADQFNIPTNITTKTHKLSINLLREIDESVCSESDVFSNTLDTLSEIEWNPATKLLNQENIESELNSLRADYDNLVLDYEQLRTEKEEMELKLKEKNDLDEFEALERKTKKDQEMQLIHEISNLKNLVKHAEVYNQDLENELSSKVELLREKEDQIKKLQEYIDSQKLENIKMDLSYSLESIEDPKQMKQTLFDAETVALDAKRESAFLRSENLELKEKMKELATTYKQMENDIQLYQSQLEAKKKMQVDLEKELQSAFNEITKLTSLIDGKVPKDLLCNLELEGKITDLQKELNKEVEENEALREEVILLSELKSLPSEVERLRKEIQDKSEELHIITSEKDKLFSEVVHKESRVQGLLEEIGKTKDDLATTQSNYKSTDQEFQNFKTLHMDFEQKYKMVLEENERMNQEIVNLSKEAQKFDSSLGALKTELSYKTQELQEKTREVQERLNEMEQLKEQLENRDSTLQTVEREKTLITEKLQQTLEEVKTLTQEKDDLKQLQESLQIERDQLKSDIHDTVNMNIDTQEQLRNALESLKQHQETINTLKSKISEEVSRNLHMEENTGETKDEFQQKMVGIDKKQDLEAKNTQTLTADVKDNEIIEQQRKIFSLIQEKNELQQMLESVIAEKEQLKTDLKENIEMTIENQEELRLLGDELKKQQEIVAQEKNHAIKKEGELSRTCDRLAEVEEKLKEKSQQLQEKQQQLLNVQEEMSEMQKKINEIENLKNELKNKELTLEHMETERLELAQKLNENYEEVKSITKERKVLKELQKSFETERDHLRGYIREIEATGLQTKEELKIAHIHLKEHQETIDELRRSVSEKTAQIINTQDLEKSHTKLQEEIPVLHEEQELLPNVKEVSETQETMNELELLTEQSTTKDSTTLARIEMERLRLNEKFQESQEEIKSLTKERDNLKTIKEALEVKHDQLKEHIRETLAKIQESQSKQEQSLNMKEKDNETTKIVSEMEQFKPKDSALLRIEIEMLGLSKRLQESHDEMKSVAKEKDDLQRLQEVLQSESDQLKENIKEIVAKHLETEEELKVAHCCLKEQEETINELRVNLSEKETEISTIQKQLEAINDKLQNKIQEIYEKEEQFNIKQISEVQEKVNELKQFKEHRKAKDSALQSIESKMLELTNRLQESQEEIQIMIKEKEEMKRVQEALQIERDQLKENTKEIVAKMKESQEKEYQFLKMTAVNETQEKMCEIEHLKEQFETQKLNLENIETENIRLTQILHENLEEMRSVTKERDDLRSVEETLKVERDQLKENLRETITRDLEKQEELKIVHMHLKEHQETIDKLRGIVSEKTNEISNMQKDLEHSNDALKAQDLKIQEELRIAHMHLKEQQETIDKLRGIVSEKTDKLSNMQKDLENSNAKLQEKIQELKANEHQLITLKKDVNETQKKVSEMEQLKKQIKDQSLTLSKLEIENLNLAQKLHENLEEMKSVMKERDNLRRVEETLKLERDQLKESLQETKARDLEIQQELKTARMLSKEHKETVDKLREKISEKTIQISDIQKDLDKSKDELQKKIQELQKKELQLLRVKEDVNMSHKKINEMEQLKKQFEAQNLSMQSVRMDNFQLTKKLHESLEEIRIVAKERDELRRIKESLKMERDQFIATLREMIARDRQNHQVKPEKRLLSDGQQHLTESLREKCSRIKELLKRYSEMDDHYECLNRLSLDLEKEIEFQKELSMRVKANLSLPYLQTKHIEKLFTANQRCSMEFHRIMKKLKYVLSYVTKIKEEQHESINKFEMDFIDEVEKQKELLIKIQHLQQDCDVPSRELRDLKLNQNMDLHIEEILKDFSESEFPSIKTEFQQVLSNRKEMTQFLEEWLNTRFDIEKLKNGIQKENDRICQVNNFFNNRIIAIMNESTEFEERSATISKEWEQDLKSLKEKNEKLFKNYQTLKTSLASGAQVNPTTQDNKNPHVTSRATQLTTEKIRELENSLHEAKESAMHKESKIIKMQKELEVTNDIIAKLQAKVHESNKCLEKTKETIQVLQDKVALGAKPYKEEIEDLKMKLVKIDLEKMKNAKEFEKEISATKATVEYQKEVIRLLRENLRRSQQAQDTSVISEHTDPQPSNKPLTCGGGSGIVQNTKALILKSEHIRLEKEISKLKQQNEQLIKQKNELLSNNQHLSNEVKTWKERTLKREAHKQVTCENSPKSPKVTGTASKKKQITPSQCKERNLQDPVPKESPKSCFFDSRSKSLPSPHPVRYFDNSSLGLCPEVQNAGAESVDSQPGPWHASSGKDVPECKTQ
Nature of the data set: Cerep enzyme and cell-based assays. In kind it is biochemical. The conditions noted are these: read-out: % Inhibition of Control Values.

For a further data set, the target named is T12, HDAC6 (h) (Homo sapiens, UniProt Q9UBN7).
T12 construct: Eurofins Pharma Discovery Services (CEREP diversity panel, outsourced assay)
Kind of data set: Cerep enzyme and cell-based assays. The conditions noted are these: read-out: % Inhibition of Control Values. In kind it is biochemical.

The next data set concerns the target T13, HDAC11 (h) (Homo sapiens, UniProt Q96DB2).
T13 construct: Eurofins Pharma Discovery Services (CEREP diversity panel, outsourced assay)
Nature of the data set: Cerep enzyme and cell-based assays. In kind it is biochemical. Conditions: read-out: % Inhibition of Control Values.

Data set [6] has as its target T14, sirtuin 1 (h) (inhibitor effect) (Homo sapiens, UniProt Q96EB6).
T14 construct: Eurofins Pharma Discovery Services (CEREP diversity panel, outsourced assay)
Nature of the data set: Cerep enzyme and cell-based assays. The class given is biochemical. The conditions noted are these: read-out: % Inhibition of Control Values.

The mark [7] stands for this setting: Homo sapiens, 72 h, read-out: IC50 anti-proliferative activity.

SMILES strings stand for the structures.

choline transporter (CHT1) (h), sequence (Q9GZV3 whole entry): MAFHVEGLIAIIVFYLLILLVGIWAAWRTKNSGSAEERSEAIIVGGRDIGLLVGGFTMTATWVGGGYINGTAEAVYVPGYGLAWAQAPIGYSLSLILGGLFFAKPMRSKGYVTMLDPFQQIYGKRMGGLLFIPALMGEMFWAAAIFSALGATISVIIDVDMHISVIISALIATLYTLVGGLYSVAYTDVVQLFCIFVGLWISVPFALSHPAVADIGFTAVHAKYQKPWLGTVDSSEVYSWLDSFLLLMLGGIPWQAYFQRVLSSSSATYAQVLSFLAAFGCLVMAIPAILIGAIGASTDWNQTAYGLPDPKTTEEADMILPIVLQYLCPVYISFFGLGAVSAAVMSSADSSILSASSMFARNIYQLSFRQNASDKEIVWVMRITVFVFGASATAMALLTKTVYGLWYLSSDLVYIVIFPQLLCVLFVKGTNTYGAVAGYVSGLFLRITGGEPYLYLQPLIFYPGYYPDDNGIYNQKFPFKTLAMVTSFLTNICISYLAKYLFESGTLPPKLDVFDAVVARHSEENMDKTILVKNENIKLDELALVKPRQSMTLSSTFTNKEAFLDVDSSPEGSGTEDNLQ
T1 sequence (P46663 whole entry): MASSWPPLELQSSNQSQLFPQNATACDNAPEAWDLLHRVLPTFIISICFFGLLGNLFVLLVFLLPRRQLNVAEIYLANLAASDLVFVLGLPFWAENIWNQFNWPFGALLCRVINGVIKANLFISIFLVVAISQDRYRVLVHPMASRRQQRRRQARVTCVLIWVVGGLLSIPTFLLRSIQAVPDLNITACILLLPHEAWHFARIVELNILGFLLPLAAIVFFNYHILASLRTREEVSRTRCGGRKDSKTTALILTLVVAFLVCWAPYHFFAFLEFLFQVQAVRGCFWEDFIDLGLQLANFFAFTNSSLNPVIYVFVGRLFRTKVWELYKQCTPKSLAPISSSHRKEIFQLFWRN
T13 sequence (Q96DB2 whole entry): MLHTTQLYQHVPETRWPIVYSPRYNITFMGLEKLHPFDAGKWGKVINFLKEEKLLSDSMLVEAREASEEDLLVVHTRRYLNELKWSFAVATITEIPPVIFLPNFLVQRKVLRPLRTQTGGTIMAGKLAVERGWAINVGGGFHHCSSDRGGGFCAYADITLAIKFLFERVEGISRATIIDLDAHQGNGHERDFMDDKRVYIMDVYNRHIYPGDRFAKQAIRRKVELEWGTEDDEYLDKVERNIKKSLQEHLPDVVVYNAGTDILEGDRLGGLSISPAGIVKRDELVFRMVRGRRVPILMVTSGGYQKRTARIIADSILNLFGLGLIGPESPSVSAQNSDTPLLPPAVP
Method for Erk phosphorylation: To examine whether PDEδ inhibition by Deltarasin and Deltazinone 1 downregulates the signal transduction via these pathways, we examined the phosphorylation of extracellular signal regulated kinase (Erk) and S6 Ribosomal Protein (S6P) in the oncogenic KRas-dependent Panc-Tu-1 and KRas-independent PANC-1 cells. […] Cells were lysed with RIPA-buffer (20 mM Tris pH 7.5, 150 mM NaCl, 0.5 mM Na2 EDTA, 1 % sodium deoxycholate, 0.1% sodium dodecyl sulfate, 1% IGEPAL supplemented with Complete Mini EDTA-free protease inhibitor (Roche Applied Science) and 1% phosphatase inhibitor cocktail 2 and 3 (P5726 and P0044, Sigma Aldrich), scraped off after 5 min on ice and centrifuged at 14,000g for 20 min at 4 °C. SDS–polyacrylamide gel electrophoresis was carried out with 10–25 μg of whole-cell lysate from each sample. The gels were blotted onto polyvinylidene difluoride membrane (Millipore) and blocked for 1 h at room temperature. […] Blots were scanned on a LI-COR Odyssey imaging system.
Western blots were quantified using ImageJ. The background of the blots was subtracted by applying the rolling ball subtraction with a radius of 50 pixels. Afterwards the integrated intensity of the bands was measured.
Method for in vivo: as §10
50% physiological saline / 40% water.
as §11, §12

The inhibition is the change of the read-out against control, counted positive when it falls. As usually defined, the Tmax is the time from dosing to the highest level. Usually Vd stands for a proportionality between amount in the body and measured concentration, not a real space. The clearance is the rate of elimination divided by the concentration. Higher therefore signals a high capacity for elimination. The AUC(0-inf) is total exposure, with the tail of the curve extrapolated. Low values mean less exposure, high ones more exposure. As usually defined, the AUC(0-t) is the area under the concentration-time curve up to a stated or last time point. A low value points to low exposure. The term half-life denotes the time needed for the level to fall by half in the phase considered. Read a low half-life as rapid decline. Take `Cc1ccc(-n2nc3c(=O)n(CCCC(=O)NCC(C)c4ccccc4)nc(C)c3c2C)cc1` (stereo not drawn) [2k]: the effect on growth entry with Capan-1 cells is reported as “strong growth inhibition but not cell death”. Besides, the “time after administration at which decreasing cell indices indicated cell death” value is given as around 40 h with MIA PaCa-2 cells and around 30 h with Panc-Tu-I cells (doses higher than 3 μM). Besides, the “onset of cell death after treatment” value with Panc-Tu-I cells (24 μM) was around 13 h. Also, the inhibition at 5 µM is -4% at B1 (h); -9% on GR (h); 3% on PDE5 (h) (non-selective); 2% in data set [1]; 0% at GABA transaminase; 18% in [3]. Also, the “% Inhibition of Control Values” in the data set on ATPase (Na+/K+) was determined as 7%. Also, in data set [2], the metabolism in mice entry was “rapidly metabolized”. Further, the time of peak concentration (Tmax) in “in vivo” (ip) stood at 4.8 min. This molecule gave a C0 in the data set “in vivo” (iv) of 3380 ng/mL. In the data set “in vivo” (iv), this molecule yielded a Vd of 1.18 L/kg. This molecule also had a clearance in “in vivo” (iv) of 30.8 mL/min/kg. This molecule also showed an AUC(0-inf) in the data set “in vivo” (iv, AUC 0-inf) of 1620 ng·h/mL. Besides, the AUC(0-t) in “in vivo” (iv, AUC 0-t) turned out to be 1620 ng·h/mL. Besides, the half-life in “in vivo” (iv, t1/2) was 21 min. The “EGF-induced Erk phosphorylation” value was “remained unaffected” in the data set with Erk phosphorylation (PANC-1, 20 μM, longer incubation times (>3 h)) and “did not significantly affect” in the data set with Erk phosphorylation (PANC-1, 1 h, 5 μM Deltarasin or 20 μM Deltazinone 1, 5 min EGF).

Broadly, the IC50 is the concentration that gives 50% inhibition. One may read the Hill coefficient as the slope factor of the fitted curve. In the case of `c1ccc(Cn2c(-c3ccc(OC[C@H](C4CCNCC4)n4c(-c5ccccc5)nc5ccccc54)cc3)nc3ccccc32)cc1` [Deltarasin, reference compound], in data set [4], the “interaction between mCitrine-KRas and mCherry-PDEδ” value is “abolished the interaction”. In addition, in the data set on Panc-Tu-I cells (5 μM), the “onset of detectable cell death post treatment” value is around 9 h. The 50% inhibitory concentration (IC50) in the data set with PANC-1 (setting [7]) was found to be 6.67 µM; in the data set on Panc-Tu-I (setting [7]), 4.83 µM. In addition, the Hill coefficient in the data set on PANC-1 is listed as -10.8; in the data set with Panc-Tu-I (Panc-Tu-I, CellTiter-Glo, n = 14) it was -5.3. The inhibition at 5 µM amounted to 3% on B1 (h); 40% at GR (h); 92% on PDE5 (h) (non-selective); 9% at acetylcholinesterase (h); 1% at MAO-A (h); 7% in data set [5]. The inhibition at 5 µM on tyrosine hydroxylase amounted to 24%; at CENP-E (h), 6%; at HDAC6 (h), 3%; on HDAC11 (h), 37%; in data set [6], 4%; in [3], 27%.
